The target in experiment [1] is Serine/threonine-protein kinase MARK2 (Homo sapiens) (UniProt Q7KZI7). The experiment in a line: Selectivity interaction (SelectScreen profiling (Invitrogen)) EUB0000607a MARK2. The conditions noted are these: at 2 µM.
Experiment [2] has as its target Serine/threonine-protein kinase PAK 2 (Homo sapiens) (UniProt Q13177). The conditions noted are these: at 10 µM.
In experiment [3] the target is T1, Receptor-interacting serine/threonine-protein kinase 1 (Homo sapiens) (UniProt Q13546).
T1 sequence (whole entry): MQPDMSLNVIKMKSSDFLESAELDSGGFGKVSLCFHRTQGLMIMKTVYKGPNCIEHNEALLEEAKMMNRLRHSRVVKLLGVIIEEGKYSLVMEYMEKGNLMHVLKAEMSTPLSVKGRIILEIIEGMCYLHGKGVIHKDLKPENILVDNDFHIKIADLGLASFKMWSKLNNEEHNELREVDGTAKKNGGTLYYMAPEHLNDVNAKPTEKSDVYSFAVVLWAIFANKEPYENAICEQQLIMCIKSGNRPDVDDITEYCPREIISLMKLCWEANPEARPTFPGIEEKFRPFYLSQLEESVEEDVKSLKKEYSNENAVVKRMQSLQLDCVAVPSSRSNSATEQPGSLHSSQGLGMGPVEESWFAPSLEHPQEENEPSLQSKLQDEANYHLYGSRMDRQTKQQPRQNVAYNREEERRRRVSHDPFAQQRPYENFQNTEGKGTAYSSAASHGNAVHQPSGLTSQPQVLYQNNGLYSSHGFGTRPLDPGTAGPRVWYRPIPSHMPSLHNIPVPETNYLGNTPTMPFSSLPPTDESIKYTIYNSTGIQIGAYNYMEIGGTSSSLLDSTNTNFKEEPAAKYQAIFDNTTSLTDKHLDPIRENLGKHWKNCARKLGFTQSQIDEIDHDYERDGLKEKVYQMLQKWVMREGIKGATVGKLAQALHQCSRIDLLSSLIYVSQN
The experiment is described as follows: Selectivity interaction (KinomeScan (DiscoverX)) EUB0000655a RIPK1. To be noted: at 10 µM.

For experiment [4], the target named is Mitogen-activated protein kinase 1 (Homo sapiens, UniProt P28482). The experiment is described as follows: Selectivity interaction (Kinase panel (literature)) EUB0001199aCl MAPK1. To be noted: at 1 µM.
In experiment [5] the target is T2, Inhibitor of nuclear factor kappa-B kinase subunit epsilon (Homo sapiens) (UniProt Q14164).
T2 sequence (whole entry): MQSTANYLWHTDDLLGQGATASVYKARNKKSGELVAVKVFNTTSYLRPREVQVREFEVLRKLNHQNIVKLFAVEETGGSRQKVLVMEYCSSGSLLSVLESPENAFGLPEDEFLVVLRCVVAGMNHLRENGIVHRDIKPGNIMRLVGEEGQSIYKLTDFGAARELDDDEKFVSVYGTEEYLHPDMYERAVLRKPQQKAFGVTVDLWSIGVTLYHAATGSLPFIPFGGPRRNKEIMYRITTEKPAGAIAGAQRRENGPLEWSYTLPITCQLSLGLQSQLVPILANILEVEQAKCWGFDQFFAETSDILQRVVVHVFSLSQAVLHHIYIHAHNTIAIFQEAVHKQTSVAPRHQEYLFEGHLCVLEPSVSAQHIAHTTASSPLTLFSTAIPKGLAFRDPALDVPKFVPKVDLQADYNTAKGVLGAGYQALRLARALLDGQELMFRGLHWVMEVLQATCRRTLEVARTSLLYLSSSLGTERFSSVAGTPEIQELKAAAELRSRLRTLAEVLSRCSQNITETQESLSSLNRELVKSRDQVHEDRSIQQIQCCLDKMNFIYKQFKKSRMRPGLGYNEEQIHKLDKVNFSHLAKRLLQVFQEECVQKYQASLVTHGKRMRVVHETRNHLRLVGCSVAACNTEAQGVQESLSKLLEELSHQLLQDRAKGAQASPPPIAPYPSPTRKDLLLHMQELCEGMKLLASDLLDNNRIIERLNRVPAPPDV
The experiment in a line: Selectivity interaction (ActivX KiNativ screen (kinase selectivity in THP-1 cell lysates)) EUB0000639a IKBKE. To be noted: lysate, at 1 µM. Format: subcellular.

In experiment [6] the target is Mitogen-activated protein kinase 9 (Homo sapiens, UniProt P45984). The experiment in a line: Selectivity interaction (ActivX KiNativ screen (kinase selectivity in THP-1 cell lysates)) EUB0000639a MAPK9. The format is subcellular. To be noted: lysate, at 0.01 µM.
The target in experiment [7] is T3, Serine/threonine-protein kinase LATS1 (Homo sapiens) (UniProt O95835).
T3 sequence (whole entry): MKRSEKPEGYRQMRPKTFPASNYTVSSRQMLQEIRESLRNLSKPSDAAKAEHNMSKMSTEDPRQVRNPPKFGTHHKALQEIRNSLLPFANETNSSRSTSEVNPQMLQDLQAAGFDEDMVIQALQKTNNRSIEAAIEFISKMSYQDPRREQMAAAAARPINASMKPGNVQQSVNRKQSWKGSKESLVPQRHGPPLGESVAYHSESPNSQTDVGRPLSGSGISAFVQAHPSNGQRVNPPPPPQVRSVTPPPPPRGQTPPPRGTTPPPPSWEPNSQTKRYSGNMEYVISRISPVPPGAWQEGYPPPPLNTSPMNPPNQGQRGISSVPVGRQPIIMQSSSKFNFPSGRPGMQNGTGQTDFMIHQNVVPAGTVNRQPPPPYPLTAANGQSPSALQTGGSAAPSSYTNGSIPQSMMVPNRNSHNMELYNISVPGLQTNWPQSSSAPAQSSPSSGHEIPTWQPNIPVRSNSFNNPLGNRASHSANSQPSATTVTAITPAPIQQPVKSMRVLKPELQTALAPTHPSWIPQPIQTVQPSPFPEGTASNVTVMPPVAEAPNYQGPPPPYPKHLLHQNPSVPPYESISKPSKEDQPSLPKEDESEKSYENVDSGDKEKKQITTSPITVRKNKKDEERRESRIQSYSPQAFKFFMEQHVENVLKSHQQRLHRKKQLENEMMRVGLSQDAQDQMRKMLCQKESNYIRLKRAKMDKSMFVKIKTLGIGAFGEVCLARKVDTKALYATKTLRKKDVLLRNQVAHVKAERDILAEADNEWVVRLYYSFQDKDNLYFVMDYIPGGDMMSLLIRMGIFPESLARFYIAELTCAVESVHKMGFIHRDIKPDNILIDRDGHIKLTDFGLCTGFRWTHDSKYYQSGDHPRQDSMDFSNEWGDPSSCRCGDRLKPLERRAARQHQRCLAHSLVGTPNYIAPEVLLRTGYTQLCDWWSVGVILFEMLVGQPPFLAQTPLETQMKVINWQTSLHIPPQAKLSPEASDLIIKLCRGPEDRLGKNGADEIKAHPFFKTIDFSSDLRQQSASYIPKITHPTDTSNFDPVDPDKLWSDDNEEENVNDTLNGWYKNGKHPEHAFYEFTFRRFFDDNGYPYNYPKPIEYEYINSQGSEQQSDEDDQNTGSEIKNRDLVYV
The experiment in a line: Selectivity interaction (KinomeScan (DiscoverX)) EUB0001049a LATS1. The conditions noted are these: at 1 µM.

In experiment [8] the target is Myosin-IIIa (Homo sapiens) (UniProt Q8NEV4). The experiment is described as follows: Selectivity interaction (KinomeScan (DiscoverX)) EUB0000695a MYO3A. The conditions noted are these: at 100 nM.
Myosin-IIIa (Homo sapiens), sequence (Q8NEV4 whole entry): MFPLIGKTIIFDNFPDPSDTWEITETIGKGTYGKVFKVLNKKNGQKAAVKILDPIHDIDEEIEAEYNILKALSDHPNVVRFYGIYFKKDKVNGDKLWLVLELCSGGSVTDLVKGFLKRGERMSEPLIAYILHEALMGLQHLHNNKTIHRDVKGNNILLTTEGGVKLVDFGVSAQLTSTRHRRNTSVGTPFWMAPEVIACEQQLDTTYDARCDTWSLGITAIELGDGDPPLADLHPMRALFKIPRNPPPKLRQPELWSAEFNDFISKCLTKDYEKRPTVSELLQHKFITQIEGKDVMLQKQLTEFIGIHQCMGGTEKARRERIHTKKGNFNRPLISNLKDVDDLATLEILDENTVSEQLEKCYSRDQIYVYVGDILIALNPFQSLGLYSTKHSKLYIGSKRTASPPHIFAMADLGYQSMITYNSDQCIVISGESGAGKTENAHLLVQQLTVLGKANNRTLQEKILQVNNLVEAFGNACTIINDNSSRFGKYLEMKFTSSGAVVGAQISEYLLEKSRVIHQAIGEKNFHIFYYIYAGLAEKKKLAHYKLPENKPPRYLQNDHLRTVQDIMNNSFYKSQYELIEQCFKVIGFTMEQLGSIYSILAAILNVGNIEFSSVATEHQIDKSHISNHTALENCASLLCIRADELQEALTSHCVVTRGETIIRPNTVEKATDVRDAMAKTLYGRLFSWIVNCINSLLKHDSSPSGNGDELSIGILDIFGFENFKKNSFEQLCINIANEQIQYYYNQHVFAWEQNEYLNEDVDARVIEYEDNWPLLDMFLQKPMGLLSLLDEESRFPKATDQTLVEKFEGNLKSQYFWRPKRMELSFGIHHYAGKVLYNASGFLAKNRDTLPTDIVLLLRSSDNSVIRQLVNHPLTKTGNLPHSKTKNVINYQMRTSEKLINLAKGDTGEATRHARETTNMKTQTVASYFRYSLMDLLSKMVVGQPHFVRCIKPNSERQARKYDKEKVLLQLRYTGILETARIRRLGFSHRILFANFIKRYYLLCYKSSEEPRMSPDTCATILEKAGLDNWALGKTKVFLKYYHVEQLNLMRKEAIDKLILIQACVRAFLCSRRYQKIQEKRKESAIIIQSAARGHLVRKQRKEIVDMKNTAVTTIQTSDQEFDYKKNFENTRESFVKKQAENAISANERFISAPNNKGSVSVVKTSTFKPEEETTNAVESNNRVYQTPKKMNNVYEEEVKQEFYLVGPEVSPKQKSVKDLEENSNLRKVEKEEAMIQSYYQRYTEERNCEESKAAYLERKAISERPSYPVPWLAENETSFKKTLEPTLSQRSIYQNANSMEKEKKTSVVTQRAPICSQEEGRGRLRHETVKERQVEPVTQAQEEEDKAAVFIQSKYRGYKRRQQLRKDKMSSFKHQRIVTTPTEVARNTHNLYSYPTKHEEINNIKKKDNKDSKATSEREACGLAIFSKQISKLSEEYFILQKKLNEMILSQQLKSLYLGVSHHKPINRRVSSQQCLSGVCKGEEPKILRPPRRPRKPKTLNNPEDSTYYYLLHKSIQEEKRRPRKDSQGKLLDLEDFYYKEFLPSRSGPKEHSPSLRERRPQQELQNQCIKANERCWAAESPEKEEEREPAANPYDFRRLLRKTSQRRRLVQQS

Serine/threonine-protein kinase PAK 2 (Homo sapiens), sequence (Q13177 whole entry): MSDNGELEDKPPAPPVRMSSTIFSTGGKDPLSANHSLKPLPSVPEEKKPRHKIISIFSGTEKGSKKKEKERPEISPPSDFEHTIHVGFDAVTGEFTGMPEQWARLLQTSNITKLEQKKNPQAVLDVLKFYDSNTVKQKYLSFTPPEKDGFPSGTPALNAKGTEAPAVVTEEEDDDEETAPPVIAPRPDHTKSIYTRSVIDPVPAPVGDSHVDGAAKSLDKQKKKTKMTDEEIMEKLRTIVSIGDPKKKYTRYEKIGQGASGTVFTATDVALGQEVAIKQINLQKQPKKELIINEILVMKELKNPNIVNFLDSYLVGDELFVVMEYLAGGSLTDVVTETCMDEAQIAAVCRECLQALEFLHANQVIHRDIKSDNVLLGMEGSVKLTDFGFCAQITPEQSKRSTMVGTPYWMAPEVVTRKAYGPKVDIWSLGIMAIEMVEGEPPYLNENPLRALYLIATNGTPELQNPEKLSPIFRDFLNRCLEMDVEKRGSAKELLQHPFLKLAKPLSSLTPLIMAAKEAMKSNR
Mitogen-activated protein kinase 9, sequence (P45984 whole entry, looked up): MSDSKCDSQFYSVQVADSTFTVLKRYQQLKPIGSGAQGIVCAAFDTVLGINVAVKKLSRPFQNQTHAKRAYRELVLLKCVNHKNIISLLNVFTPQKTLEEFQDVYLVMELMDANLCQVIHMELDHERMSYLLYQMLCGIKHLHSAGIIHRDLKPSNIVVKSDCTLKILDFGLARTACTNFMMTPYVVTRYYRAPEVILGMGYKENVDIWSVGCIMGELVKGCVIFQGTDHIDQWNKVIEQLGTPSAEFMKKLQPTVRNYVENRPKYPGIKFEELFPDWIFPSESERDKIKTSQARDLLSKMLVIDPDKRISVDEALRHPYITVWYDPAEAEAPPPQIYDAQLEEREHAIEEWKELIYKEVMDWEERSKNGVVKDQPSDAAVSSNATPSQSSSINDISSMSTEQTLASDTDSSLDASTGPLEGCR
Serine/threonine-protein kinase MARK2 (Homo sapiens), sequence (Q7KZI7 whole entry): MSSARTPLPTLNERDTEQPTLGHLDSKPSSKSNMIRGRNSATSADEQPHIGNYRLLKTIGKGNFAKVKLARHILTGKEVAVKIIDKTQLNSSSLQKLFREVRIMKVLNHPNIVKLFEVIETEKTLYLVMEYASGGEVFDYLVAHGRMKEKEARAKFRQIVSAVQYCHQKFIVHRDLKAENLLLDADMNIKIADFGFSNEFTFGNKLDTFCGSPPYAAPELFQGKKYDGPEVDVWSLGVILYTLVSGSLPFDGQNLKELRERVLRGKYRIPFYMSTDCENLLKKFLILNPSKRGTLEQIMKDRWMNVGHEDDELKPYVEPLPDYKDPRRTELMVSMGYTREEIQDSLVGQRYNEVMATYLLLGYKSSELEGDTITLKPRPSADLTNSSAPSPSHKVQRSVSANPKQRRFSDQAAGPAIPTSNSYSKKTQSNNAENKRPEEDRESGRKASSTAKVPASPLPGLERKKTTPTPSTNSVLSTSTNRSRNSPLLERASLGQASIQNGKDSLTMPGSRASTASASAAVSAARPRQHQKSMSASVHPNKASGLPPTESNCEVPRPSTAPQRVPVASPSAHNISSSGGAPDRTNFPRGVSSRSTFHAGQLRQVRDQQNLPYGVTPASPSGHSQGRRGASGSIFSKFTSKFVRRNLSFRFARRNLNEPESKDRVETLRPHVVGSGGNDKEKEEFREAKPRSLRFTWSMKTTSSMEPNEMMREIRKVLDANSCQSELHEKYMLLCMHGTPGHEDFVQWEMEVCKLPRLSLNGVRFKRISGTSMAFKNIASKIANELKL
Mitogen-activated protein kinase 1, sequence (P28482 whole entry): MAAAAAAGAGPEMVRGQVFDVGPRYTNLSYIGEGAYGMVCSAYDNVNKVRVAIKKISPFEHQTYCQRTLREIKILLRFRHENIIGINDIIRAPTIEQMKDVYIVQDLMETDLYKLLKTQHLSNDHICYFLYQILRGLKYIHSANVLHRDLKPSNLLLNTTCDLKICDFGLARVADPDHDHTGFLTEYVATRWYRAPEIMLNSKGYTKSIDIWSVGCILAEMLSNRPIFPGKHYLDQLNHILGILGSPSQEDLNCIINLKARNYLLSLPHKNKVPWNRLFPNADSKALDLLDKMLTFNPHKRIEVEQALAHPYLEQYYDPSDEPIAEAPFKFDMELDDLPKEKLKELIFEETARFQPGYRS

Turning to `CNC(=O)Nc1ccc(-c2nc(N3CC4CCC(C3)O4)c3cnn(C4CCC5(CC4)OCCO5)c3n2)cc1`, in experiment [1], the % of inhibition came out at 12%.

`Cc1cc([C@@H](C)Nc2ccccc2C(=O)O)c2nc(N3CCOCC3)cc(=O)n2c1` [AZD-6482] gave a % of control in experiment [2] of 100%.

As for `CN(C)CCOc1ccc(-c2nc(-c3ccncc3)c(-c3ccc4c(c3)CC/C4=N\O)[nH]2)cc1`, the % of control in experiment [3] was 72%.

Regarding `CN1Cc2nccc(-c3cn(C)nc3-c3ccc(F)cc3)c2C1=O`, the % of inhibition in experiment [4] was determined as 2%.

Take `CC[C@@H]1[C@H](F)C(=O)N[C@@H]1COc1nccc2cc(C(N)=O)c(OC)cc12` [ZIMLOVISERTIB]: the % of inhibition is 10% in experiment [5] and -10% in experiment [6].

In the case of `COc1cc(Nc2nc(C)cc(-c3cnn4nc(OC)ccc34)n2)cc(C(F)(F)F)c1`, the % of control in experiment [7] turned out to be 100%.

Molecule `Cc1cc(F)c(C(=O)Nc2cccc(-c3nncn3C(C)C)n2)cc1-n1cnc(C2CC2)c1` had a % of control in experiment [8] of 100%.

(Values after ChEMBL document CHEMBL5465560, “Selectivity Literature for EUbOPEN Chemogenomic Library” (2024).)
